Assay results reported in patent US7655216B2, “Vaccine for activating helper function of CD8+ Tcells” (University of Pittsburgh - Of the Commonwealth of Higher …, priority 2007, dated 2010).
“Also recorded” adds a separate entry of the source. The star is where a group is joined. Cbz = O=C(OCc1ccccc1)*; CH2F = FC*

How the values were obtained:
[1] = test system: immature DCs co-cultured with effector-type CD8+ T cells; assay type: cell-based, human
SEB loaded DCs = assay type: cell-based, human
PI-9 in DCs = test: Intracellular PI-9 expression in DCs (flow cytometry); assay type: cell-based, human
Description: Flow cytometry. Cell surface phenotype was analyzed by flow cytometry using Beckman Coulter XL. The FITC and PE-labeled isotype controls (mouse IgG1 and IgG2a), anti-human CD86, anti-human perforin were obtained from BD Pharmingen. CD83 monoclonal antibody was purchased from Immunotech and PE-labeled Granzyme B antibody was obtained from Cell Sciences. Goat anti-mouse IgG-FITC conjugated was obtained from Caltag Laboratories. For detection of intracellular PI-9, PI-9 specific mouse monoclonal IgG1 antibody was used as described (Bladergroen et al., J. Immunol. 166:3218-3225 (2001)). Briefly, for intracellular staining of PI-9, DCs were washed and then blocked with human Ig for 10 minutes at room temperature. Subsequently, cells were permeabilized with 300 μl of Permiflow (Invirion, Frankfort, Mich.) for 60 minutes at room temperature and then washed. The cells were stained with unconjugated anti human PI-9 antibody for 20 minutes at room temperature followed by staining with FITC conjugated goat anti-mouse IgG antibody. Granzyme B and perforin staining were performed according to manufacturer's protocol, using Permiflow as permeabilization reagent. […]
Intracellular expression of PI-9 (open profiles) in DCs has been analyzed by flow cytometry before and after (15 and 120 minutes) the exposure to recombinant TNFα (50 ng/ml).

[2] = test system: SEB-loaded DCs co-cultured with memory-type CD8+ T cells; assay type: cell-based, human
MC38 adenocarcinoma = test system: MC38 adenocarcinoma; design: species or system C57BL/6 mice; conditions: mouse, in vivo, sc

For `O=C(O)CN(CCOCCOCCN(CC(=O)O)CC(=O)O)CC(=O)O` [EGTA], the “DC killing by effector-type CD8+ T cells” value [1] was “completely eliminated”.

In the case of Cbz-IETD-CH2F, the “CTL-induced DC death (survival of DCs)” value [1] is reported as “abrogated the CTL-induced DC death”.

Concanamycin A was tested, and the “DC killing by effector-type CD8+ T cells” value [1] was “completely eliminated; also recorded: abrogated their DC-killing ability” and the “DC activation / phenotypic maturation (CD86, CD83)” value (SEB loaded DCs) was “enhance DC activation”.

For IETD-CHO, the “CTL-induced DC death (survival of DCs)” value [1] was “abrogated the CTL-induced DC death”.

With Infliximab the “memory-type CD8+ T cell-induced induction of PI-9 in DCs” value (PI-9 in DCs; 10 hour time point) was “blocks” and the “DC survival in co-culture with memory-type CD8+ T cells” value [2] was “equally effective in converting the memory T cell-induced DC activation into memory T cell-induced DC death; also recorded: reduces DC survival”.

With KAVYNFATC [LCMVgp33-41] the “induction of MC38-specific CTL activity (killing MC38)” value (MC38 adenocarcinoma) was “more effective in killing MC38 than a DC vaccine loaded only with tumor antigen”.

In the case of SIINFEKL [OVA257-264], the “induction of MC38-specific CTL activity (killing MC38)” value (MC38 adenocarcinoma) is reported as “more effective in killing MC38 than a DC vaccine loaded only with tumor antigen”.

With TNFα the “induction of PI-9 in DCs” value (PI-9 in DCs; recombinant TNFα 50 ng/ml, 15 and 120 minutes) was “Rapid induction of PI-9” and the “resistance of immature DCs to CTL killing” value [1] was “acquired resistance to CTL killing”.

B1: soluble TNF receptor I: recombinant human soluble TNF-RI (R&D Systems) (protein, UniProt P19438 30-211, looked up)
extracellular domain: LVPHLGDREKRDSVCPQGKYIHPQNNSICCTKCHKGTYLYNDCPGPGQDTDCRECESGSFTASENHLRHCLSCSKCRKEMGQVEISSCTVDRDTVCGCRKNQYRHYWSENLFQCFNCSLCLNGTVHLSCQEKQNTVCTCHAGFFLRENECVSCSNCKKSLECTKLCLPQIENVKGTEDSGTT
modifications: extracellular domain
In the case of B1, the “DC survival in co-culture with memory-type CD8+ T cells” value [2] is reported as “equally effective in converting the memory T cell-induced DC activation into memory T cell-induced DC death”.
